From patent US8367681B2, “Pyrazolopyrimidines and related heterocycles as kinase inhibitors” (Cylene Pharmaceuticals, Inc., priority 2009, dated 2013)

Key:
[1] = system: MV-4 human acute myeloid leukemia cells; test: Alamar Blue (AB) cell proliferation assay, MV-4-11; assay type: cell-based; conditions: MV4-11, 96 h, MV-4-11 cells, four days with compound
Procedure: (§1) A representative cell-proliferation assay protocol using Alamar Blue dye (stored at 4° C., use 20 ul per well) is described hereafter.
(§2) 96-well Plate Setup and Compound Treatment • a. Split and trypsinize cells. • b. Count cells using hemocytometer. • c. Plate 4,000-5,000 cells per well in 100 μl of medium and seed into a 96-well plate according to the following plate layout. Add cell culture medium only to wells B10 to B12. Wells B1 to B9 have cells but no compound added.
(§3) • d. Add 100 μl of 2× drug dilution to each well in a concentration shown in the plate layout above. At the same time, add 100 μl of media into the control wells (wells B10 to B12). Total volume is 200 μl/well. • e. Incubate four (4) days at 37° C., 5% CO2 in a humidified incubator. • f. Add 20 μl Alamar Blue reagent to each well. • g. Incubate for four (4) hours at 37° C., 5% CO2 in a humidified incubator. • h. Record fluorescence at an excitation wavelength of 544 nm and emission wavelength of 590 nm using a microplate reader.
(§4) In the assays, cells are cultured with a test compound for approximately four days, the dye is then added to the cells and fluorescence of […] dye is detected after approximately four hours. Different types of cells can be utilized in the assays (e.g., HCT-116 human colorectal carcinoma cells, PC-3 human prostatic cancer cells, MDA-MB231 human breast cancer cells, K-562 human chronic myelogenous leukemia (CML) cells, MiaPaca human pancreatic carcinoma cells, MV-4 human acute myeloid leukemia cells, and BxPC3 human pancreatic adenocarcinoma cells).

[2] = system: K-562 human chronic myelogenous leukemia (CML) cells; test: Alamar Blue (AB) cell proliferation assay, K-562; assay type: cell-based; conditions: K562, 96 h, K-562 cells, four days with compound
Procedure: as §1, §2, §3, §4

[3] = system: PC-3 human prostatic cancer cells; test: Alamar Blue (AB) cell proliferation assay, PC3; assay type: cell-based; conditions: PC-3, 96 h, four days with compound
Procedure: as §1, §2, §3, §4

recombinant human CK2 = target: T1, recombinant human CK2 (Homo sapiens, UniProt P68400); test: CK2 assay, cell-free, 33P-ATP filter plate; assay type: biochemical
T1 construct: purchased Upstate
T1 sequence (P68400 whole entry): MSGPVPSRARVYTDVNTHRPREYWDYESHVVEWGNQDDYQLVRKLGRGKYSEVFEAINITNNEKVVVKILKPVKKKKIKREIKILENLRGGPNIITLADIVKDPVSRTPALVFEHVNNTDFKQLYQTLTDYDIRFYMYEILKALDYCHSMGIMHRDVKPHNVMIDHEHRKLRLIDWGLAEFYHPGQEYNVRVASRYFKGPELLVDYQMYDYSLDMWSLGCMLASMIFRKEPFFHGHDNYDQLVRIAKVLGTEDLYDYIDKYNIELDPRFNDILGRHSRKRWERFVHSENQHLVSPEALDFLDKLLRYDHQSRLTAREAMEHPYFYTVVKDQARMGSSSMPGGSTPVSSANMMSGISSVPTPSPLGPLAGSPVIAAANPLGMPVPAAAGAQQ
T1 sequence (P67870 whole entry partner): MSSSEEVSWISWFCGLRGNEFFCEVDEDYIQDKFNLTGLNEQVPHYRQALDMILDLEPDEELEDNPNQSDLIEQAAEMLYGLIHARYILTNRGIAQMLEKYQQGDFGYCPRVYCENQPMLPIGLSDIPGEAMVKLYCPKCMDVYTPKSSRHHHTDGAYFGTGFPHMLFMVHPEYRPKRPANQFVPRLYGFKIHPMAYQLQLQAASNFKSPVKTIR
Procedure: Modulatory activity of compounds described herein was assessed in vitro in cell-free CK2 assays by the following method.
Test compounds in aqueous solution were added at a volume of 10 microliters, to a reaction mixture comprising 10 microliters Assay Dilution Buffer (ADB; 20 mM MOPS, pH 7.2, 25 mM beta-glycerolphosphate, 5 mM EGTA, 1 mM sodium orthovanadate and 1 mM dithiothreitol), 10 microliters of substrate peptide (RRRDDDSDDD SEQ ID NO.: 4, dissolved in ADB at a concentration of 1 mM), 10 microliters of recombinant human CK2 (25 ng dissolved in ADB; Upstate). Reactions were initiated by the addition of 10 microliters of ATP Solution (90% 75 mM MgCl2, 75 micromolar ATP dissolved in ADB; 10% [γ-^33P]ATP (stock 1 mCi/100 μl; 3000 Ci/mmol (Perkin Elmer) and maintained for 10 minutes at 30 degrees C. The reactions were quenched with 100 microliters of 0.75% phosphoric acid, then transferred to and filtered through a phosphocellulose filter plate (Millipore). After washing each well 5 times with 0.75% phosphoric acid, the plate was dried under vacuum for 5 min and, following the addition of 15 ul of scintillation fluid to each well, the residual radioactivity was measured using a Wallac luminescence counter.

[4] = system: MiaPaca human pancreatic carcinoma cells; test: Alamar Blue (AB) cell proliferation assay, MiaPaCa; assay type: cell-based; conditions: MIA PaCa-2, 96 h, four days with compound
Procedure: as §1, §2, §3, §4

recombinant PIM-1 = recombinant PIM-1 (Homo sapiens, UniProt P11309); test: PIM-1 kinase assay, 33P-ATP filter plate; assay type: biochemical; conditions: recombinant PIM-1, 15 uM ATP; read-out: PIM1: IC50
recombinant PIM-1, sequence (P11309 whole entry): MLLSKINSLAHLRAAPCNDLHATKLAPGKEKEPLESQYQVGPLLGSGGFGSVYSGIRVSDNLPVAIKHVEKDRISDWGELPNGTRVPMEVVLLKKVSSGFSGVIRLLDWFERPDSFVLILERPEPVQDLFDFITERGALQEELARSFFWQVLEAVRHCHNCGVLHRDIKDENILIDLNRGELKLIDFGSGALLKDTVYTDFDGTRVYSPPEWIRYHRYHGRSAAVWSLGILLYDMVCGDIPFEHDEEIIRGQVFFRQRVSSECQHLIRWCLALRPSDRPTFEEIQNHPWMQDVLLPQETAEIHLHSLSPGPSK
Procedure: The following procedure was used to assay the PIM-1 kinase activity of compounds of the invention. Other methods for assaying PIM-1 and other PIM kinases, as well as methods to assay for activity against the various kinases in FIG. 1, are known in the art.
In a final reaction volume of 50 ul, recombinant PIM-1 (1 ng) was incubated with 12 mM MOPS pH 7.0, 0.4 mM EDTA, glycerol 1%, brij 35 0.002%, 2- mercaptoethanol 0.02%, BSA 0.2 mg/ml, 100 uM KKRNRTLTK SEQ ID NO.: 5, 10 mM MgAcetate, 15 uM ATP, [γ-^33P-ATP] (specific activity approx. […]), DMSO 4% and test inhibitor compound at the required concentration. The reaction was initiated by the addition of the Magnesium ATP mixture. After 40 min incubation at 23° C., the reactions were quenched by the addition of 100 ul 0.75% Phosphoric acid, and the labeled peptide collected by filtration through a phosphocellulose filter plate. The plate was washed 4 times with 0.075% phosphoric acid (100 ul per well) and then, after the addition of scintillation fluid (20 ul per well), the counts were measured by a scintillation counter.

[5] = system: MDA-MB231 human breast cancer cells; test: Alamar Blue (AB) cell proliferation assay, MDAMB231; assay type: cell-based; conditions: MDA-MB-231, 96 h, four days with compound
Procedure: as §1, §2, §3, §4

P21_MDAMB231 = P21_MDAMB231 cellular assay; assay type: cell-based; conditions: Homo sapiens, MDA-MB-231; MDAMB231 cells
P21_BxPC3 = P21_BxPC3 cellular assay; assay type: cell-based; conditions: Homo sapiens, BXPC-3; BxPC3 cells
recombinant human PIM2 = recombinant human PIM2 (Homo sapiens, UniProt Q9P1W9); test: PIM-2 kinase assay, 33P-ATP filter plate; assay type: biochemical; conditions: PIM2, 5 μM ATP; read-out: PIM2 IC50 (printed in the PIM1: IC50 (μM) column)
recombinant human PIM2, sequence (Q9P1W9 whole entry): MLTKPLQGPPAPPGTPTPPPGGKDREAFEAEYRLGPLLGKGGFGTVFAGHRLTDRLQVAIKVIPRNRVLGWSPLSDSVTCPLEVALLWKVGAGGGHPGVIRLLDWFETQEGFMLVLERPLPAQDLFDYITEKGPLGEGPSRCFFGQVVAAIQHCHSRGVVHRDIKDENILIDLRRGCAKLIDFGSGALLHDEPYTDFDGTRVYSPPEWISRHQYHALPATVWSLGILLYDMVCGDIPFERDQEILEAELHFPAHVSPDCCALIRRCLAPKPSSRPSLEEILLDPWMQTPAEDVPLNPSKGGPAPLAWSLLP
Procedure: Test compounds dissolved and diluted in DMSO (2 μl) were added to a reaction mixture comprising 10 μl of 5× Reaction Buffer (40 mM MOPS pH 7.0, 5 mM EDTA), 10 μl of recombinant human PIM2 solution (4 ng PIM-2 dissolved in dilution buffer (20 mM MOPS pH 7.0; EDTA 1 mM; 5% Glycerol; 0.01% Brij 35; […]; […] 2-mercaptoethanol; 1 mg/ml BSA)) and 8 ul of water. Reactions were initiated by the addition of 10 ul of ATP Solution ([…] (15 mM MgCl2; 75 uM ATP) 1% ([γ-33P]ATP: Stock 1 mCi/100 μl; 3000 Ci/mmol (Perkin Elmer)) and 10 ul of substrate peptide solution (RSRSSYPAGT SEQ ID NO.: 6, dissolved in water at a concentration of 1 mM), Reactions were maintained for 10 min at 30° C. The reactions were quenched with 100 ul of 0.75% Phosphoric acid, then transferred to and filtered through a Phosphocellulose filter plate (Millipore, MSPH-N6B-50). After washing each well 4 times with 0.75% Phosphoric acid, scintillation fluid (20 uL) was added to each well and the residual radioactivity was measured using a Wallac luminescence counter.

Structure (SMILES)	IC50 [3] [nM]	IC50 (recombinant human CK2) [nM]	IC50 (recombinant PIM-1) [nM]	also measured
COC(=O)c1cccc(-c2ccn3ncc(/C=C4/SC(=S)NC4=O)c3n2)c1	3910	13	21	IC50 [1]: 11 nM; IC50 [2]: > 10000 nM; IC50 [4]: > 10000 nM; IC50 [5]: 8660 nM
O=C1NC(=O)/C(=C\c2cnn3ccc(-c4cccc(C(=O)O)c4)nc23)S1	> 30000	9	688	IC50 [1]: > 1000 nM; IC50 [2]: > 10000 nM; IC50 [4]: > 10000 nM; IC50 [5]: > 10000 nM
CC(C)(C)c1cccc(Nc2ccn3ncc(/C=C4/NC(=O)NC4=O)c3n2)c1	–	210	890	–
Nc1ccn2ncc(/C=C3\NC(=O)NC3=O)c2n1	–	> 5000	158	–
O=C1NC(=O)/C(=C\c2cnn3ccc(Nc4cccc(Cn5ccnc5)c4)nc23)N1	–	120	61	–
O=C1NC(=O)/C(=C/c2cnn3ccc(N4CCCCC4)nc23)N1	–	145	431	–
CN1C(=O)NC(=O)/C1=C/c1cnn2ccc(Nc3cccc(Cl)c3)nc12	–	375	239	–
O=C1NC(=O)/C(=C/c2cnn3ccc(Nc4cccc(OCCN5CCOCC5)c4)nc23)N1	–	303	1250	–
CC(C)CNc1ccn2ncc(/C=C3\NC(=O)NC3=O)c2n1	6550	35	346	–
CN(C)CCOc1ccc(Nc2ccn3ncc(/C=C4\NC(=O)NC4=O)c3n2)cc1	–	58	431	–
O=C1NC(=O)/C(=C/c2cnn3ccc(NCCF)nc23)N1	–	2150	2380	–
O=C1NC(=S)S/C1=C\c1cnn2ccc(-c3ccccc3F)nc12	> 10000	15	25	–
O=C1NC(=O)/C(=C/c2cnn3ccc(-c4ccccc4F)nc23)N1	–	179	3010	–
O=C1NC(=O)/C(=C/c2cnn3ccc(Nc4ccc(Cl)cc4)nc23)N1	–	20	194	–
O=C1NC(=O)/C(=C/c2cnn3ccc(Nc4ccc(Cl)cc4)nc23)S1	–	7	–	–
CCOCCNC(=O)c1ccc(-c2ccn3ncc(/C=C4\NC(=O)NC4=O)c3n2)s1	–	< 100	–	IC50 (recombinant human PIM2): 1.06 µM
CC(O)CNC(=O)c1ccc(-c2ccn3ncc(/C=C4\NC(=O)NC4=O)c3n2)s1 (stereo not drawn)	–	< 100	–	IC50 (recombinant human PIM2): 0.54 µM

Second part, led by results:

IC50 [3] [nM]	IC50 (recombinant human CK2) [nM]	IC50 (recombinant PIM-1) [nM]	Structure (SMILES)	also measured
> 30000	80	91	COC(=O)c1cccc(-c2ccn3ncc(/C=C4/SC(=O)NC4=O)c3n2)c1	IC50 [2]: 51 nM; IC50 (P21_MDAMB231): 3160 nM; IC50 [4]: > 10000 nM; IC50 [5]: > 10000 nM; IC50 (P21_BxPC3): 5680 nM
842	6	18	O=C1NC(=S)S/C1=C/c1cnn2ccc(Nc3cccc(Cl)c3)nc12	IC50 [1]: > 30 nM; IC50 [2]: 153 nM; IC50 (P21_MDAMB231): 300 nM; IC50 [4]: > 10000 nM; IC50 [5]: > 10000 nM; IC50 (P21_BxPC3): 2660 nM
143	9	427	O=C1NC(=O)/C(=C\c2cnn3ccc(Nc4cccc(Cl)c4)nc23)N1	IC50 [1]: > 30 nM; IC50 [2]: 153 nM; IC50 (P21_MDAMB231): 100 nM; IC50 [4]: 108 nM; IC50 [5]: 768 nM; IC50 (P21_BxPC3): 540 nM
3040	3	52	O=C1NC(=O)/C(=C\c2cnn3ccc(Nc4cccc(Cl)c4)nc23)S1	IC50 [1]: 271 nM; IC50 [2]: 132 nM; IC50 (P21_MDAMB231): 680 nM; IC50 [4]: 285 nM; IC50 [5]: 110 nM; IC50 (P21_BxPC3): 450 nM
–	22	4	Cc1nccn1-c1cccc(Nc2ccn3ncc(/C=C4\SC(=O)NC4=O)c3n2)c1	IC50 [1]: 5380 nM; IC50 [2]: > 10000 nM; IC50 [4]: > 10000 nM; IC50 [5]: > 10000 nM
–	79	107	CC(C)(C)c1cccc(Nc2ccn3ncc(/C=C4/SC(=O)NC4=O)c3n2)c1	–
–	57	537	CN1CCN(c2ccc(Nc3ccn4ncc(/C=C5/NC(=O)NC5=O)c4n3)cc2)CC1	–
–	460	373	CCN(CC)Cc1cccc(Nc2ccn3ncc(/C=C4\NC(=O)NC4=O)c3n2)c1	–
–	1970	3530	CN1CCCN(c2ccn3ncc(/C=C4\NC(=O)NC4=O)c3n2)CC1	–
–	130	126	CN1CCCN(c2ccn3ncc(/C=C4\SC(=O)NC4=O)c3n2)CC1	–
–	247	518	CN1CCN(c2cccc(Nc3ccn4ncc(/C=C5\NC(=O)NC5=O)c4n3)c2)CC1	–
9710	23	1040	CC(C)Oc1cccc(Nc2ccn3ncc(/C=C4\NC(=O)NC4=O)c3n2)c1	–
–	574	1570	CC(C)Nc1ccn2ncc(/C=C3\NC(=O)NC3=O)c2n1	–
> 10000	41	240	O=C1NC(=O)/C(=C/c2cnn3ccc(-c4ccccc4F)nc23)S1	–
–	< 100	–	O=C1NC(=O)/C(=C/c2cnn3ccc(-c4ccc(C(=O)NCC5CC5)s4)nc23)N1	IC50 (recombinant human PIM2): 0.58 µM
